Experimental data reported in the NIST ThermoML archive (doi:10.1021/je0342522).
Numbers after ± are expanded uncertainties. Blank lines part the entries; values can stand above or below the compound they belong to.

Columns and labels:
[1] = Liquid
[2] = excess molar enthalpy (molar enthalpy of mixing); xn = mol fraction of the nth substance listed; settings: 323.15 K, 4100 kPa, Liquid, Flow calorimetry

- vapor or sublimation pressure ([1]; 333.15 K): 0.22 ± 0.04 kPa
- vapor or sublimation pressure ([1]; 353.15 K): 0.77 ± 0.05 kPa
Compound: OCCO [1,2-ethanediol]

- vapor or sublimation pressure ([1]; 323.27 K): 0.34 ± 0.042 kPa
Compound: CC(=O)c1ccccc1 [acetophenone]

- vapor or sublimation pressure ([1]; 323.27 K): 2058.9 ± 14 kPa
Compound: C=CC [propene]

- excess molar enthalpy ([2]; x1 = 0.0702): 0.054 ± 0.002 kJ/mol
- excess molar enthalpy ([2]; x1 = 0.1375): 0.105 ± 0.003 kJ/mol
- excess molar enthalpy ([2]; x1 = 0.202): 0.148 ± 0.003 kJ/mol
- excess molar enthalpy ([2]; x1 = 0.264): 0.188 ± 0.004 kJ/mol
- excess molar enthalpy ([2]; x1 = 0.3235): 0.213 ± 0.005 kJ/mol
- excess molar enthalpy ([2]; x1 = 0.4086): 0.24 ± 0.005 kJ/mol
- excess molar enthalpy ([2]; x1 = 0.4889): 0.25 ± 0.006 kJ/mol
- excess molar enthalpy ([2]; x1 = 0.5893): 0.246 ± 0.006 kJ/mol
- excess molar enthalpy ([2]; x1 = 0.6828): 0.218 ± 0.005 kJ/mol
- excess molar enthalpy ([2]; x1 = 0.7487): 0.184 ± 0.004 kJ/mol
- excess molar enthalpy ([2]; x1 = 0.8115): 0.142 ± 0.003 kJ/mol
- excess molar enthalpy ([2]; x1 = 0.8516): 0.113 ± 0.003 kJ/mol
- excess molar enthalpy ([2]; x1 = 0.8905): 0.082 ± 0.002 kJ/mol
- excess molar enthalpy ([2]; x1 = 0.9281): 0.052 ± 0.002 kJ/mol
- excess molar enthalpy ([2]; x1 = 0.9646): 0.025 ± 0.001 kJ/mol
Compound: C=CC [propene] + CC(=O)c1ccccc1

- vapor or sublimation pressure ([1]; 333.15 K): 19.93 ± 0.17 kPa
- vapor or sublimation pressure ([1]; 353.15 K): 47.44 ± 0.35 kPa
Compound: O [water]
